The record followed here is patent US11753407B2, “Compounds for treating spinal muscular atrophy” (PTC Therapeutics, Inc., priority 2012, dated 2023).

Experiment [1] has as its system SMN2 minigene mRNA (SMN2-A minigene) in HEK293H cells. The experiment is described as follows: SMN2 minigene mRNA splicing RT-qPCR assay in cultured cells. Format: cell-based, human. The conditions noted are these: Homo sapiens, HEK293-H; concentration increasing full length SMN2 mRNA 1.5-fold relative to vehicle-treated cells; HEK293H cells with SMN2-A minigene, 24 hours, 7-point concentration data; read-out: EC1.5x for production of full length SMN2 mRNA. As to the method:
The reverse transcription-quantitative PCR-based (RT-qPCR) assay is used to quantify the level of the full length SMN2 minigene mRNA containing SMN2 exon 7 in a HEK293H cell line stably transfected with said minigene and treated with a test compound.
Protocol. HEK293H cells stably transfected with the SMN2-A minigene construct described above (10,000 cells/well) are seeded in 200 μL of cell culture medium (DMEM plus 10% FBS, with 200 μg/mL hygromycin) in 96-well flat-bottom plates and the plate is immediately swirled to ensure proper dispersal of cells, forming an even monolayer of cells. Cells are allowed to attach for at least 4-6 hours. Test compounds are serially diluted 3.16-fold in 100% DMSO to generate a 7-point concentration curve. A solution of test compound (1 μL, 200× in DMSO) is added to each cell-containing well and the plate is incubated for 24 hours in a cell culture incubator (37° C., 5% CO2, 100% relative humidity). 2 replicates are prepared for each test compound concentration. The cells are then lysed in Cells-To-Ct lysis buffer and the lysate is stored at −80° C.
Primer SMN Forward A (SEQ ID NO. 1) hybridizes to a nucleotide sequence in exon 7 (nucleotide 22 to nucleotide 40), primer SMN Reverse A (SEQ ID NO. 2) hybridizes to a nucleotide sequence in the coding sequence of Firefly luciferase, SMN Probe A (SEQ ID NO. 3) hybridizes to a nucleotide sequence in exon 7 (nucleotide 50 to nucleotide 54) and exon 8 (nucleotide 1 to nucleotide 21). The combination of these three oligonucleotides detects only SMN1 or SMN2 minigenes (RT-qPCR) and will not detect endogenous SMN1 or SMN2 genes.
The SMN forward and reverse primers are used at final concentrations of 0.4 μM. The SMN probe is used at a final concentration of 0.15 μM. The GAPDH primers are used at final concentrations of 0.2 μM and the probe at 0.15 μM.
The SMN2-minigene GAPDH mix (15 μL total volume) is prepared by combining 7.5 μL of 2× RT-PCR buffer, 0.4 μL of 25× RT-PCR enzyme mix, 0.75 μL of 20× GAPDH primer-probe mix, 4.0075 μL of water, 2 μL of 10-fold diluted cell lysate, 0.06 μL of 100 μM SMN forward primer, 0.06 μL of 100 μM SMN reverse primer, and […].
PCR is carried out at the following temperatures for the indicated time: Step 1: 48° C. (15 min); Step 2: 95° C. (10 min); Step 3: 95° C. (15 sec); Step 4: 60° C. (1 min); then repeat Steps 3 and 4 for a total of 40 cycles.
Each reaction mixture contains both SMN2-A minigene and GAPDH primers/probe sets (multiplex design), allowing simultaneous measurement of the levels of two transcripts.
Two SMN spliced products are generated from the SMN2 minigene. The first spliced product containing exon 7, corresponding to full length SMN2 mRNA, is referred to herein using the term “SMN2 minigene FL.” The second spliced product lacking exon 7 is referred to herein using the term “SMN2 minigene Δ7.”
The increase of SMN2 minigene FL mRNA relative to that in cells treated with vehicle control is determined from real-time PCR data using a modified ΔΔCt method (as described in Livak and Schmittgen, Methods, 2001, 25:402-8). The amplification efficiency (E) is calculated from the slope of the amplification curve for SMN2 minigene FL and GAPDH individually. The abundances of SMN2 minigene FL and GAPDH are then calculated as (1+E)^−Ct, where Ct is the threshold value for each amplicon. The abundance of SMN2 minigene FL is normalized to GAPDH abundance. The normalized SMN2 minigene FL abundance from test compound-treated samples is then divided by normalized SMN2 minigene FL abundance from vehicle-treated cells to determine the level of SMN2 FL mRNA relative to vehicle control.
For compounds of Formula (I) or a form thereof disclosed herein, Table 4 provides the […] for production of full length SMN2 mRNA that was obtained from the 7-point concentration data generated for each test compound according to the procedure of Biological Example 2. […]
(In qPCR the cycle at which signal appears reflects the starting amount.)

Experiment [2] concerns Smn protein in SMA patient fibroblast cells (GM03813). As to the kind of experiment: Smn protein assay in cultured cells (SMN HTRF). Format: cell-based, human. The following applies: SMA patient fibroblast cells, 48 hours; for EC1.5x for Smn protein expression: 7-point concentration curve, SMN HTRF, concentration producing 1.5 times Smn protein vs DMSO vehicle control; for maximum fold (Fold) increase of Smn protein: 7-point concentration data, fold relative to vehicle control. As to the method: The SMN HTRF (homogeneous time resolved fluorescence) assay is used to quantify the level of Smn protein in SMA patient fibroblast cells treated with test compounds.
Protocol. Cells are thawed and cultured in DMEM-10% FBS for 72 hours. Cells are trypsinized, counted and re-suspended to a concentration of 25,000 cells/mL in DMEM-10% FBS. The cell suspension is plated at 5,000 cells per well in a 96 well microtiter plate and incubated for 3 to 5 hours. […] Test compounds are serially diluted 3.16-fold in 100% DMSO to generate a 7-point concentration curve. 1 μL of test compound solution is transferred to cell-containing wells and cells are incubated for 48 hours in a cell culture incubator (37° C., 5% CO2, 100% relative humidity). Triplicate samples are set up for each test compound concentration. After 48 hours, the supernatant is removed from the wells and 25 μL of the RIPA lysis buffer, containing protease inhibitors, is added to the wells and incubated with shaking at room temperature for 1 hour. 25 μL of the diluent is added and then 35 μL of the resulting lysate is transferred to a 384-well plate, where each well contains 5 μL of the antibody solution (1:100 dilution of anti-SMN d2 and anti-SMN kryptate in SMN reconstitution buffer). The plate is centrifuged for 1 minute to bring the solution to the bottom of the wells, then incubated overnight at room temperature. Fluorescence for each well of the plate at 665 nm and 620 nm is measured on an EnVision multilabel plate reader (Perkin-Elmer).
The normalized fluorescence signal is calculated for each sample, Blank and vehicle control well by dividing the signal at 665 nm by the signal at 620 nm. Normalizing the signal accounts for possible fluorescence quenching due to the matrix effect of the lysate. The ΔF value (a measurement of Smn protein abundance as a percent value) for each sample well is calculated by subtracting the normalized average fluorescence for the Blank control wells from the normalized fluorescence for each sample well, then dividing this difference by the normalized average fluorescence for the Blank control wells and multiplying the resulting value by 100. The ΔF value for each sample well represents the Smn protein abundance from test compound-treated samples. The ΔF value for each sample well is divided by the ΔF value for the vehicle control wells to calculate the fold increase in Smn protein abundance relative to the vehicle control.
For compounds of Formula (I) or a form thereof disclosed herein, Table 9 provides the EC1.5× for Smn protein expression that was obtained from the 7-point concentration data generated for each test compound according to the procedure of Biological Example 7. The term “EC1.5× for Smn protein expression” is defined as that concentration of test compound that is effective in producing 1.5 times the amount of Smn protein in an SMA patient fibroblast cell compared to the amount produced from the DMSO vehicle control. An EC1.5× for Smn protein expression between >3 μM and ≤10 μM is indicated by one star (*), an EC1.5× between >1 μM and ≤3 μM is indicated by two stars (**), an EC1.5× between >0.3 μM and ≤1 μM is indicated by three stars (***) and an EC1.5x≤0.3 μM is indicated by four stars (****).
For compounds of Formula (I) or a form thereof disclosed herein, Table 10 provides the maximum fold (Fold) increase of Smn protein that was obtained from the 7-point concentration data generated for each test compound according to the procedure of Biological Example 7. A maximum fold increase of ≤1.2 is indicated by one star (*), a fold increase between >1.2 and ≤1.35 is indicated by two stars (**), a fold increase between >1.35 and ≤1.5 is indicated by three stars (***), a fold increase between >1.5 and ≤1.65 is indicated by four stars (****) and a fold increase >1.65 is indicated by five stars (*****).
On the technique in general: Time-resolved FRET reads energy transfer from a long-lived donor to a nearby acceptor.

`Cc1cn2nc(-c3cc(=O)n4cc(C5=CCN(C6CC6)CC5)ccc4n3)cc2c(C)n1` [Compound 354, 7-(1-cyclopropyl-1,2,3,6-tetrahydropyridin-4-yl)-2-(4,6-dimethylpyrazolo[1,5-a]pyrazin-2-yl)-4H-pyrido[1,2-a]pyrimidin-4-one]: in experiment [1], the EC (1.5-fold increase) is < 0.1 µM. In experiment [2], the “EC1.5x for Smn protein expression” value is “*** (an EC1.5× between >0.3 μM and ≤1 μM is indicated by three stars (***))”; the “maximum fold (Fold) increase of Smn protein” value (“maximum fold (Fold) increase” for short) was “**** (a fold increase between >1.5 and ≤1.65 is indicated by four stars (****))”.
Turning to `CCc1nc(C)cn2nc(-c3cc(=O)n4cc(N5CC[C@@H](N(C)C)C5)cc(C)c4n3)cc12` [Compound 822, 7-[(3R)-3-(dimethylamino)pyrrolidin-1-yl]-2-(4-ethyl-6-methylpyrazolo[1,5-a]pyrazin-2-yl)-9-methyl-4H-pyrido[1,2-a]pyrimidin-4-one], in experiment [1], the EC (1.5-fold increase) lay in the range of 0.1 to 0.3 µM. Also, in experiment [2], the “EC1.5x for Smn protein expression” value is “*** (an EC1.5× between >0.3 μM and ≤1 μM is indicated by three stars (***))”; the “maximum fold (Fold) increase” value was “**** (a fold increase between >1.5 and ≤1.65 is indicated by four stars (****))”.
Regarding `Cc1cn2cc(-c3cc(=O)n4cc(N5CCN[C@H](C)C5)ccc4n3)cc(F)c2n1` [Compound 270, 2-(8-fluoro-2-methylimidazo[1,2-a]pyridin-6-yl)-7-[(3R)-3-methylpiperazin-1-yl]-4H-pyrido[1,2-a]pyrimidin-4-one], the EC (1.5-fold increase) in experiment [1] is < 0.1 µM. Further, in experiment [2], the “EC1.5x for Smn protein expression” value is “**** (an EC1.5x≤0.3 μM is indicated by four stars (****))”; the “maximum fold (Fold) increase” value is “**** (a fold increase between >1.5 and ≤1.65 is indicated by four stars (****))”.
Turning to `COc1cc(-c2cc(=O)n3cc(N4CCNCC4)ccc3n2)cc(F)c1OC` [Compound 145, 2-(3-fluoro-4,5-dimethoxyphenyl)-7-(piperazin-1-yl)-4H-pyrido[1,2-a]pyrimidin-4-one], in experiment [1], the EC (1.5-fold increase) is 1 to 3 µM. Moreover, the “maximum fold (Fold) increase” value in experiment [2] is “* (A maximum fold increase of ≤1.2 is indicated by one star (*))”.
With `COc1ccc(-c2cc(=O)n3cc(N4CCCNCC4)ccc3n2)cc1OC` [Compound 10, 7-(1,4-diazepan-1-yl)-2-(3,4-dimethoxyphenyl)-4H-pyrido[1,2-a]pyrimidin-4-one], the EC (1.5-fold increase) in experiment [1] fell in the range of 1 to 3 µM. For the same compound, in experiment [2], the “maximum fold (Fold) increase” value is “** (a fold increase between >1.2 and ≤1.35 is indicated by two stars (**))”.
As to `Cc1cn2cc(-c3cc(=O)n4cc(N5CCN[C@@H](C)C5)ccc4n3)ccc2n1` [Compound 115, 2-(2-methylimidazo[1,2-a]pyridin-6-yl)-7-[(3S)-3-methylpiperazin-1-yl]-4H-pyrido[1,2-a]pyrimidin-4-one], in experiment [1], the EC (1.5-fold increase) was < 0.1 µM. Further, in experiment [2], the “EC1.5x for Smn protein expression” value is “**** (an EC1.5x≤0.3 μM is indicated by four stars (****))”; the “maximum fold (Fold) increase” value was “**** (a fold increase between >1.5 and ≤1.65 is indicated by four stars (****))”.
On to `Cc1nc2cc(-c3cc(=O)n4cc(N5CCN[C@@H](C)C5)ccc4n3)ccc2o1` [Compound 156, 2-(2-methyl-1,3-benzoxazol-5-yl)-7-[(3S)-3-methylpiperazin-1-yl]-4H-pyrido[1,2-a]pyrimidin-4-one], for which the EC (1.5-fold increase) in experiment [1] is 0.3 to 1 µM. In addition, in experiment [2], the “maximum fold (Fold) increase” value was “*** (a fold increase between >1.35 and ≤1.5 is indicated by three stars (***))”.
Consider `Cc1cn2nc(-c3cc(=O)n4cc(N5CCCN(C)CC5)cc(C)c4n3)cc2c(C)n1` [Compound 520, 2-(4,6-dimethylpyrazolo[1,5-a]pyrazin-2-yl)-9-methyl-7-(4-methyl-1,4-diazepan-1-yl)-4H-pyrido[1,2-a]pyrimidin-4-one], for which the EC (1.5-fold increase) in experiment [1] lay within 0.1 to 0.3 µM. In addition, in experiment [2], the “EC1.5x for Smn protein expression” value was “**** (an EC1.5x≤0.3 μM is indicated by four stars (****))”; the “maximum fold (Fold) increase” value is “**** (a fold increase between >1.5 and ≤1.65 is indicated by four stars (****))”.
With `CCc1nc(C)cn2nc(-c3cc(=O)n4cc(C5CCN(C)CC5)cc(C)c4n3)cc12` [Compound 774, 2-(4-ethyl-6-methylpyrazolo[1,5-a]pyrazin-2-yl)-9-methyl-7-(1-methylpiperidin-4-yl)-4H-pyrido[1,2-a]pyrimidin-4-one], the EC (1.5-fold increase) in experiment [1] is < 0.1 µM. Also, in experiment [2], the “EC1.5x for Smn protein expression” value is “**** (an EC1.5x≤0.3 μM is indicated by four stars (****))” and the “maximum fold (Fold) increase” value is listed as “***** (a fold increase >1.65 is indicated by five stars (*****))”.
